Literature values in US11077086B2, “Solid dosage form composition for buccal or sublingual administration of cannabinoids” (PHARMACEUTICAL PRODUCTIONS, INC., priority 2014, dated 2021).

Test system: cannabinoid receptor

Structure (SMILES): C=C(C)[C@@H]1CCC(C)=C[C@H]1c1c(O)cc(CCCCC)cc1O [cannabidiol (CBD), cannabidiol]
- affinity for the cannabinoid receptor: do not have significant affinity
